≈ marks a conversion by molar mass, not a printed value.
system: Mycobacterium tuberculosis variant microti; test: Antimycobacterial activity against Mycobacterium microti MTCC 1727 by agar dilution method; format: functional

| Compound | MIC [µM] |
| --- | --- |
| O=[N+]([O-])c1ccc(/C=N/NC(=S)Nc2ncc(Br)cc2Br)o1 | 6.9 (≈ 3.1 µg/mL) |
| O=[N+]([O-])c1ccc(/C=N/NC(=S)Nc2ccc(Cl)cc2)o1 | 38.4 (≈ 12.5 µg/mL) |
| Cc1cccnc1NC(=S)N/N=C/c1ccc([N+](=O)[O-])o1 | 10.2 (≈ 3.11 µg/mL) |
| CCc1cccc(CC)c1NC(=S)N/N=C/c1ccc([N+](=O)[O-])o1 | 72.1 (≈ 25 µg/mL) |
| O=[N+]([O-])c1ccc(/C=N/NC(=S)Nc2ccccc2)o1 | 86.1 (≈ 25 µg/mL) |
| Cc1ccnc(NC(=S)N/N=C/c2ccc([N+](=O)[O-])o2)c1 | 20.5 (≈ 6.26 µg/mL) |
| Cc1ccc(NC(=S)N/N=C/c2ccc([N+](=O)[O-])o2)cc1 | 20.5 (≈ 6.24 µg/mL) |
| O=[N+]([O-])c1ccc(/C=N/NC(=S)Nc2ccccc2Br)o1 | 67.1 (≈ 24.8 µg/mL) |
| Cc1ccc(NC(=S)N/N=C/c2ccc([N+](=O)[O-])o2)c(C)c1 | 78.5 (≈ 25 µg/mL) |
| Cc1cccc(C)c1NC(=S)N/N=C/c1ccc([N+](=O)[O-])o1 | 78.5 (≈ 25 µg/mL) |
| Cc1cc(C)nc(NC(=S)N/N=C/c2ccc([N+](=O)[O-])o2)c1 | 39.1 (≈ 12.5 µg/mL) |
| Cc1ccc(C)c(NC(=S)N/N=C/c2ccc([N+](=O)[O-])o2)c1 | 157 (≈ 50 µg/mL) |
| O=[N+]([O-])c1ccc(/C=N/NC(=S)Nc2ccccn2)o1 | 48.4 (≈ 14.1 µg/mL) |
| O=[N+]([O-])c1ccc(/C=N/NC(=S)Nc2ccc(Cl)cn2)o1 | 38.3 (≈ 12.5 µg/mL) |
| COc1ccc(NC(=S)N/N=C/c2ccc([N+](=O)[O-])o2)c(OC)c1 | 17.8 (≈ 6.24 µg/mL) |
| COc1ccc(NC(=S)N/N=C/c2ccc([N+](=O)[O-])o2)cc1 | 78 (≈ 25 µg/mL) |
| NS(=O)(=O)c1ccc(NC(=S)N/N=C/c2ccc([N+](=O)[O-])o2)cc1 | 67.6 (≈ 25 µg/mL) |
| O=C(O)c1cn(C2CC2)c2cc(N3CCNCC3)c(F)cc2c1=O [CIPROFLOXACIN] | 2.35 (≈ 0.779 µg/mL) |
| NNC(=O)c1ccncc1 [ISONIAZID] | 22.8 (≈ 3.13 µg/mL) |
| CO[C@H]1/C=C/O[C@@]2(C)Oc3c(C)c(O)c4c(O)c(c(/C=N/N5CCN(C)CC5)c(O)c4c3C2=O)NC(=O)/C(C)=C\C=C\[C@H](C)[C@H](O)[C@@H](C)[C@@H](O)[C@@H](C)[C@H](OC(C)=O)[C@@H]1C [RIFAMPIN] | 30.4 (≈ 25 µg/mL) |

— ChEMBL document CHEMBL1136842, “5-Nitrofuran-2-yl derivatives: synthesis and inhibitory activities against growing and dormant mycobacterium species” (Bioorg Med Chem Lett, 2009)
